The subject of experiment [1] is MCA205 tumors. Kind of experiment: Gene expression assays in tumors (TaqMan RT-PCR) 8 days after DX. The experiment is classed as in vivo, mice. To be noted: 8 days post-treatment, quantitative RT-PCR. Background: Quantitative PCR measures a nucleic acid by following its amplification.
Protocol: Whole RNA was extracted using RNeasy Mini Kit, QIAGEN from pieces of tumor homogenates. 5 μg of RNA from each sample were reverse-transcribed using Quantitect Reverse Transcription Kit (QIAGEN). Gene expression assays were performed with TaqMan® 96 well Plates customized to test cytokines, chemokines as well as transcription factors using StepOnePlus™ Real-Time PCR System. PPIA was chosen as the endogenous control to perform normalization between different samples.
Experiment [2] relates to tumor infiltrating lymphocytes (TILs) of MCA205 tumors. Briefly: Tumor dissection and flow cytometry of TILs (IFN-γ, IL-17). The experiment is classed as in vivo, mice. On the technique in general: A flow cytometer gives signals particle by particle.
Protocol: Tumor burdens were carefully removed, cut into small pieces with scissors within digesting buffer (400 U/ml Collagenase IV and 150 U/ml DNase I in RPMI1640) and incubated for 30 min at 37° C. Single cell suspension was obtained by grinding the digested tissue and filtering through 70 μM cell strainer. […] LIVE/DEAD Fixable Dead Cell Stain Kit was used to distinguish live and dead cells. For intracellular staining, freshly isolated cells were treated with, 50 ng/ml PMA, 1 μg/ml ionomycin and Golgi-stop (BD Pharmingen), 4 hrs, 37° C. in RPMI containing 2% mouse serum (Janvier, France). Cells were then washed with PBS and stained with anti-IFN-γ (PE-cy7) and anti-IL-17 (PE) using BD Cytofix/Cytoperm™ Kit following the instructions.
Experiment [3] relates to CT26 colon cancer. Kind of experiment: Anthracycline chemotherapy of established CT26 colon cancer. The experiment is classed as in vivo, mice. Particulars: single intratumoral injection. Here is the method:
0.8 million MCA205 or CT26 or TS/A tumor cells were inoculated subcutaneously near the thigh into C57Bl/6 (H-2^b) or BALB/c (H-2^d) mice. Anthracyclines-based chemotherapy was performed in MCA205 and CT26 models by intratumoral injecting DX (2 mM, […]) when tumors reached the size 25-40 mm^2. Radiotherapy was performed by local X-ray irradiation (10 Gy, RT250, Phillips) at the unshielded tumor area when TS/A tumor reached the size 40-60 mm^2.

The test system of experiment [4] is MCA 205 tumors. Briefly: qRT-PCR of tumor gene expression after Doxorubicin. To be noted: 2 days after treatment; Mavs, Irf3, Irf1 and Tnf unchanged. The experiment is classed as in vivo, mice. Here is the method:
0.8 Million of MCA 205 has been subcutaneously implanted to C57Bl6 mice.
Tumor samples were freshly collected, briefly washed in RPMI1640 media (GIBCO). Tissue samples were cut to a maximum thickness in any one dimension of 0.5 cm, placed in 5 volumes of RNAlater® (SIGMA ALDRICH). Samples can be stored at room temperature if processed for RNA extraction on the same day or stored at 4° C. for less than 1 month. RNA extraction from each tumor (up to 30 mg/sample) was performed using RNeasy Mini Kit (QIAGEN) following the instructions.
Add 20 μL1 of Master mix (dN6 (3 ng/μl), dNTP (1 mM), Buffer (1×), RNAsin (40 U) Superscript® III RT (200 U)) into the processed mRNA sample. Mix was incubated at 50° C. for 1 h and then inactivated at 75° C. for 15 min.
cDNA of each sample was diluted at 1:3 with DNase free water. For each sample, 4 μl of primer and probe TAQMAN (2×), 10 μl of assay mix (20×), 5 μl diluted cDNA were added. qRT-PCR was performed (45 cycles with standard PCR program using StepOnePlus™ system (Applied Biosystems). PPIA was used as endogenous control gene to normalize gene expression for data analysis.

For experiment [5], the system named is MCA205 fibrosarcoma. Briefly: Chemotherapy and Dendrophilin treatment of established MCA205 tumors. The experiment is classed as in vivo, mice. To be noted: doxorubicin intratumorally. As for the experimental part:
(§1) WT or loss-of-function mice were injected in the right flank with 1×10^6 of EL4 or CT26 or MCA205 cells. Mice were then randomly assigned into treatment groups of 4-6 mice each. […] Two and/or four days after chemo treatment, mice were treated with Dendrophilin or LPS (2 μg in 100 μl NaCl per mouse i.v or i.t). […] Tumor growths were monitored every 3-4 days using a caliper.

Experiment [6] deals with U2OS cells. Briefly: US Drug library screen: CRT-GFP, HMGB1-GFP, quinacrine. To be noted: 1 μM, 4 h / 24 h / 16 h.
In experiment [7] the test system is U2OS cells stably expressing CRT-GFP. Briefly: CRT-GFP redistribution (granularity, nuclear shape) by automated microscopy; ICCB library screen. The experiment is classed as cell-based, human. To be noted: 1 μM MTX, 150 μM CDDP, 300 μM OXP. Here is the method: The data is depicted as mean±s.e.m. of quadruplicates from a representative experiment. (C) Immunofluorescene was conducted on CRT-GFP expressing cells by means of staining with anti-CRT antibody and subsequent confocal image acquisition. (D) CRT has been cloned in frame n-terminal to a HaloTag® sequence followed by a KDEL ER retention signal. (E) The impermeable HaloTag® ligand forms covalent bonds exclusively with surface exposed HaloTag®-CRT fusion protein, whereas intracellular HaloTag®-CRT remains undetected.
Compounds from the ICCB known bioactive compounds library have been tested for their capacity to induce CRT-exposure. […] The cells were incubated for 4 h and were acquired by means of automated microscopy. The data is depicted as dot plots and representative images (B).
After washing with PBS 4 viewfields per well were acquired by means of a BD pathway 855 automated microscope.

The subject of experiment [8] is U2OS cells. The experiment is classed as cell-based. Here is the method:
The data is depicted as representative images (A) and (B) normalized Bax-GFP granularity values.
The data represents mean±s.e.m. of quadruplicates from a representative experiment. […] 16 h after treatment, cell death was monitored by simultaneous staining with 3,3 dihexyloxacarbocyanine iodide (DiOC6(3)) and propidium iodide (PI), and the percentage of dying (DiOC6(3)^low PI^−, open bars) and dead (DiOC6(3)^low PI^+, closed bars) cells was determined by cytofluorometry.
Cell death was quantified by cytofluorometric analysis using a FACS Vantage (Becton Dickinson, Mountain View, USA) as described previously (REF). Thus, cells were stained with 40 nM 3,3 dihexyloxacarbocyanine iodide (DiOC6(3); Molecular Probes, Eugene, Oreg., USA) for 30 min at 37° C. and concomitantly with 1 μg/ml propidium iodide (PI; Sigma Aldrich) for 30 min at 37° C. to determine the mitochondrial transmembrane potential. Data were statistically evaluated using CellQuest Pro software (Becton Dickinson, Mountain View, USA).

For experiment [9], the system named is U2OS cells. Kind of experiment: ATP release assays (quinacrine, luciferin-based). To be noted: 16 h post-treatment, intracellular and extracellular ATP. The experiment is classed as cell-based, human. Here is the method:
In short, cells were labeled with 1 μM quinacrine in Krebs-Ringer solution (125 mM NaCl, 5 mM KCl, 1 mM MgSO4, 0.7 mM KH2PO4, 2 mM CaCl2, 6 mM glucose and 25 mM Hepes, pH 7.4) for 30 min at 37° C.
After incubation in quinacrine solution (as described above), cells were rinsed and resuspended in PBS containing 1 μg/ml PI. The samples were analyzed by means of a FACS Vantage (Becton Dickinson) and the data was statistically evaluated using the CellQuest Pro software (BD Biosciences).
After cell death induction, extracellular ATP was measured by luciferin-based ENLITEN ATP Assay (Promega, Madison, USA) following the manufacturer's instructions. Intracellular ATP was measured using an ATP Assay kit (Calbiochem, Darmstadt, Germany) based on luciferin-luciferase conversion following the manufacturer's instructions. For assessment of the chemoluminescent signal, the plates were read in a Fluostar luminometer (BMG Labtech).

Experiment [10] relates to eIF2α. Kind of experiment: Immunoblotting of eIF2α / PERK phosphorylation. The experiment is classed as cell-based. From the text: (E) The phosphorylation status of eIF2α has been assessed by immunoblotting against the phosphoneoepitope Ser51 of eIF2α by means of a monoclonal antibody. A polyclonal antibody has been used to visualize whole eIF2α protein levels.
Background: Immunoblotting shows a protein as a band on a membrane.

Experiment [11] relates to CT26 overexpressing LC3-GFP. Briefly: Induction of autophagy in vivo, LC3-GFP redistribution. Also on record: species or system mice. To be noted: i.v., tumors withdrawn 48 hours post-therapy. As for the experimental part: After 8 days of tumor implantation (CT26 mouse colon cancer genetically modified to overexpress LC3-GFP in BALB/c immunocompetent mice), oxaliplatin or mitoxanthrone was inoculated systemically (i.v.). Tumors were withdrawn at 48 hours post-therapy and immunofluorescence stainings were performed on frozen sections of tumor tissues to visualize nuclei (in Hoechst blue), and autophagosomes in green (LC3-GFP). […] The lower panel is a graph summarizing enumeration of autophagosomes positive cells in 10 independent sections per tumor and animal (each dot represents one tumor). Statistical analyses were performed with Anova test (Fisher's exact method) with significant results at p<0.05.

The test system of experiment [12] is EL4 thymoma. Briefly: Chemotherapy and Dendrophilin treatment of established EL4 tumors. The experiment is classed as in vivo, mice. To be noted: oxaliplatin 5 mg per kg i.p. Here is the method: as §1
Experiment [13] has as its system MCA205 cells. Kind of experiment: In vivo anti-tumor vaccination with treated MCA205 cells (Example 3). To be noted: s.c. injection, rechallenge with live tumor cells.
Protocol: (F) MCA205 cells have been used for tumor vaccination in vivo. […] The mice have been rechallenged after 6 days with living cells and the tumor growth is depicted in the survival plot (n=10).
Tumor growth was evaluated for at least 50 days.
In experiment [14] the test system is U2OS cells. Kind of experiment: Analysis of surface exposed CRT (HaloTag ligand, anti-CRT immune staining).

The values below come from patent US8865653B2, “Method of treatment for immunogenic treatment resistant cancer” (Institut Gustave Roussy, priority 2010, dated 2014).

For `COc1cccc2c1C(=O)c1c(O)c3c(c(O)c1C2=O)C[C@@](O)(C(=O)CO)C[C@@H]3O[C@H]1C[C@H](N)[C@H](O)[C@H](C)O1` [DX, doxorubicin], in [1], the “Eomes, Tbx21 (T-bet) and IFN-γ expression increase, DX versus PBS-treated tumors” value is on record as 4-5 fold. The “increase in the proportions of IFN-γ and IL-17 producing TILs” value in experiment [2] (DX compared with PBS, flow cytometry, day 8) came to 3 fold. The “IFN-γ production by CD8+ and CD4+ TILs and IL-17 production by γδ TILs” value in [2] (MCA205, post-chemotherapy) is “substantially enhanced”. Further, in [3], the tumor growth result is on record as “significantly retarded tumor growth”. Moreover, the “genes involved in viral recognition and anti-viral immune responses, RT-PCR” value in [4] is given as “specifically up-regulated”. The “antitumor effects of chemotherapy alone” value in experiment [5] is reported as “only mild effects”. The “rank in screen for exposing CRT and emitting HMGB1 and ATP” value in experiment [6] was “most potent in exposing CRT, and emitting HMGB1 and ATP”.
As usually defined, the IC50 is the concentration needed to halve the response being measured. `O=C1[O][Pt]2([NH][C@@H]3CCCC[C@H]3[NH]2)[O]C1=O` [OXP, oxaliplatin]: the “CRT-GFP granularity (relocation to peripheral granular distribution)” value in experiment [7] is “only observed after treatment of the cells with MTX or OXP”. For the same molecule, the IC50 in [8] (short-term experiments, loss of the mitochondrial transmembrane potential ΔΨm, read-out: IC50, imminent cell death) was ~600 µM. The “mitochondrial perturbations (ΔΨm dissipation, Bax-GFP relocation)” value in [8] (used at their IC50) is reported as “induced similar mitochondrial perturbations”. In addition, the ATP release entry in experiment [9] was “induced ATP release”. In addition, in [10] (phospho-neoepitope-specific antibody), the “eIF2α phosphorylation on serine 51” value is given as “much more efficient than CDDP”. Further, the “activating phosphorylation of PERK” value in [10] (shortly after treatment) is “detectable shortly after treatment with OXP”. Further, the “redistribution of LC3-GFP in autophagosomes in tumors” value in experiment [11] is “Redistribution of LC3-GFP in autophagosomes can be visualized post-therapy”. Besides, the “antitumor effects of chemotherapy alone” value in [12] is recorded as “only mild effects”. Besides, the “protective anticancer immune response after vaccination with drug-treated MCA205 cells” value in experiment [13] is on record as “readily induce such a tumor-protective response”. Moreover, the “surface exposure of CRT-HaloTag” value in [14] (cell-impermeable HaloTag ligand, microscopy and cytofluorometry) is on record as “unless they were treated with immunogenic cell death inducers such as OXP”. In addition, the “surface immunofluorescence staining of CRT” value in experiment [14] (non-permeabilized CRT-GFP cells) was “actually extruded CRT”.
